From patent US9241958B2, “Anticoagulant antagonist and hemophilia procoagulant” (The Board of Trustees of the University of Illinois, priority 2007, dated 2016)

Legend:
[1] = cited from earlier work
fresh whole blood = assay: Whole blood thromboelastometry (ROTEM), clotting initiated with dilute thromboplastin; format: biochemical, human
Procedure: Thromboelastography was carried out using the ROTEM® four channel system (Pentapharm, Munich, Germany) using the supplied software package. Fresh, non-anticoagulated whole blood was collected via atraumatic venipuncture using a two-syringe technique. The initial 3 ml of blood was discarded and the blood sample to be used was then drawn into a 3 ml plain plastic syringe. The blood was immediately transferred to the supplied disposable plastic cups (280 μL per cup) and thoroughly mixed with 20 μL buffer (TBS: 50 mM Tris-HCl pH 7.4, 150 mM NaCl, 0.02% NaN3) or additives in TBS. Each fresh whole blood sample was divided into 4 cups containing the following: TBS only (control), polyP75, anticoagulant drug only, or both polyP75 and anticoagulant drug. Clotting was then initiated immediately via addition of 20 μL of tissue factor containing clotting reagent (INNOVIN® diluted in TBS). Thromboelastography measurement was initiated within 120 seconds of blood drawing for all samples. The final concentrations in the reaction were 87.5% whole blood, INNOVIN® diluted 1:17,000, 0 or 100 μM polyP, 0 or added anticoagulant drug (0.1 U/mL unfractionated heparin or 2.7 μg/mL enoxaparin or 1 μg/mL argatroban, or 0.2 μg/mL rivaroxaban). The measurements were continued for 2 hours and the clot time (CT), clot formation time (CFT), alpha angle (α angle), and maximum clot firmness (MCF) were recorded as supplied by the ROTEM® software. Each anticoagulant drug was added in vitro to whole blood from 5 different individuals.
(§1) Statistical analyses were performed using SigmaStat statistical software version 2.03 (SPSS, Inc). In all cases, two-tailed t-tests were conducted at the 0.05 level of significance. Clot times obtained using the Dilute PT Test with and without added polyP in plasma-based experiments were compared using unpaired t-tests. Results for each variable obtained from the ROTEM® experiments (CT, CFT, a angle, MCF) were compared separately. For each group of anticoagulants, parameters obtained for control blood samples were compared to those for blood+polyP, blood+anticoagulant, and blood+anticoagulant+polyP. The latter two samples were also directly compared. To account for inter-individual variation, thromboelstography parameters were compared using paired t-tests.

thrombin = thrombin (Homo sapiens, UniProt P00734); assay: Studies with purified proteins: inactivation of thrombin by antithrombin; format: biochemical
fibrinogen = molecular target: T1, fibrinogen (Homo sapiens, UniProt P02671+P02675+P02679); assay: Clot structure of thrombin cleaved fibrinogen; format: biochemical
T1 sequence (P02671 20-644 isoform P02671-2 limits assumed): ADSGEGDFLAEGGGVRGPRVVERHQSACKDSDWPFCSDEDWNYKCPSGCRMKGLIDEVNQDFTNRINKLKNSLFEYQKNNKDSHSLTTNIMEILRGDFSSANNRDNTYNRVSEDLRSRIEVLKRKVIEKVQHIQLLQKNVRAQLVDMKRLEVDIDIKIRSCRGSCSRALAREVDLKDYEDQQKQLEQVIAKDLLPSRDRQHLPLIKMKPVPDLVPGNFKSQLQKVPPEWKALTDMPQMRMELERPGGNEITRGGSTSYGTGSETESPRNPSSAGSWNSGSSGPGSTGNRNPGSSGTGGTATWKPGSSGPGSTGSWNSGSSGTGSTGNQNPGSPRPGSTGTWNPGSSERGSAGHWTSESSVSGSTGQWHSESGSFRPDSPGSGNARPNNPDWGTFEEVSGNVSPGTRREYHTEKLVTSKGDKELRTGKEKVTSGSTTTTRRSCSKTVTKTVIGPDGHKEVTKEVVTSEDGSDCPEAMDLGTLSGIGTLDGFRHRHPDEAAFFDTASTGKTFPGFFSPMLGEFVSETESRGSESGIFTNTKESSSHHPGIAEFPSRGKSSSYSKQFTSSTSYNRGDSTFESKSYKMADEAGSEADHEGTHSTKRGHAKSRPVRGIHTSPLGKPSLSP
T1 sequence (P02675 31-491): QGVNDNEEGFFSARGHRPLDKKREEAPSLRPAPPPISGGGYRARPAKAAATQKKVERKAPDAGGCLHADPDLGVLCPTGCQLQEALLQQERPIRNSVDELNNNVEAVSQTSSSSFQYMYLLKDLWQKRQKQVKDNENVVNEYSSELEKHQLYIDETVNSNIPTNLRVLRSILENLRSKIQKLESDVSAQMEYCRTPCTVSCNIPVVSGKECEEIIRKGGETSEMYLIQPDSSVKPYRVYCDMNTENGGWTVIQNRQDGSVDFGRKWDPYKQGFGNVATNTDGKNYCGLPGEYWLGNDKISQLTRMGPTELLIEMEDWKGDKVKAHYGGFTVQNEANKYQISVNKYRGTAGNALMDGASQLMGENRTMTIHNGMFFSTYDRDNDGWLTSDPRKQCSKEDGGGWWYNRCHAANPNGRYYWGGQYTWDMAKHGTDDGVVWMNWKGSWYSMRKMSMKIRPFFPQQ
T1 sequence (P02679 27-437 isoform P02679-2 limits assumed): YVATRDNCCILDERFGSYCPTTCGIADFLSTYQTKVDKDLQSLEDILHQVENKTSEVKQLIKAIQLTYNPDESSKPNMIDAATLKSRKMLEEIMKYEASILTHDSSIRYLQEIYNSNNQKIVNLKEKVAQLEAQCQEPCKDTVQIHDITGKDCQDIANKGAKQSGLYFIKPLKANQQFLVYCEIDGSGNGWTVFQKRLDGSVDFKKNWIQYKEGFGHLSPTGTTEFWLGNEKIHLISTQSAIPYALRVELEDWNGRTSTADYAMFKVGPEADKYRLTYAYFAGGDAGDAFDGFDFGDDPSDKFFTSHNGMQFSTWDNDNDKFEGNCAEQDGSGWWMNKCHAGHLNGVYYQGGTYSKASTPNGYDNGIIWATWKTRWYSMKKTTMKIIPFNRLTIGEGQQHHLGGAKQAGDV

pooled normal plasma = assay: Dilute PT Test, plasma clot time, anticoagulants added in vitro; format: biochemical, human
Procedure: (§2) The following describes the use of the Dilute PT Test to evaluate the effectiveness of polyP in treat hemophilia and reversing the effects of anticoagulant drugs. Anticoagulant drugs were added to pooled normal plasma in vitro at concentrations of up 1 U/mL for unfractionated heparin, 100 μg/mL for enoxaparin, 3 μg/mL for argatroban, and 1 μg/mL for rivaroxaban. Plasma from a patient deficient in FVIII was evaluated with and without the addition of up to 0.5 μg/mL FVIII or 20 nM FVIIa. Plasma from a patient deficient in FIX was evaluated with and without the addition of up to 4 μg/mL FIX or 20 nM FVIIa. INR values for samples from patients receiving COUMADIN® ranged from 1.7 to 4.8.
(§3) Plasma clots were formed in 96-well medium binding polystyrene microplates (Corning Inc., Corning, N.Y.). Plasma (80 μL) was added to the well and clotting was initiated by addition of 160 uL of clotting reagent. The clotting reagent consisted of RecombiPlasTin (as a source of tissue factor) diluted 200 fold (for normal and anticoagulated plasmas) or 8000 fold (for hemophilia plasmas) into buffer containing 100 μM phospholipid vesicles (20% phosphatidylserine and 80% phosphatidylcholine made by sonication), 12.5 mM CaCl2, 25 mM Tris HCl pH 7.4, 0.1% bovine serum albumin, and 150 mM NaCl. Clotting reagent was divided into reagent without added polyP and reagent with added 100 μM polyP75.
(§4) Clotting was evaluated by monitoring the change in turbidity (A405) for 1 hour at room temperature using Softmax software and a Spectramax microplate reader (Molecular Devices Corporation, Sunnyvale, Calif.). […] All assays were repeated 5 times.
as §1

[2] = test system: plasma from patients receiving COUMADIN®; assay: Dilute PT Test, plasma clot time, patients receiving COUMADIN; format: biochemical, human; settings: 7 patients, INR 1.7 to 4.8; polyP75 added in vitro
Procedure: as §2
Plasma clots were formed in 96-well medium binding polystyrene microplates (Corning Inc., Corning, N.Y.). Plasma (80 μL) was added to the well and clotting was initiated by addition of 160 uL of clotting reagent. […]
Clotting was evaluated by monitoring the change in turbidity (A405) for 1 hour at room temperature using Softmax software and a Spectramax microplate reader (Molecular Devices Corporation, Sunnyvale, Calif.). […]

factor V = factor V (Homo sapiens, UniProt P12259); assay: Studies with purified proteins: activation of factor V; format: biochemical
[3] = test system: plasma from patients with hemophilia A (FVIII<1%); assay: Dilute PT Test, plasma clot time, hemophilia A patients; format: biochemical, human
Procedure: as §2, §3, §4, §1

[4] = test system: plasma from patients with hemophilia B (FIX<1%); assay: Dilute PT Test, plasma clot time, hemophilia B patients; format: biochemical, human
Procedure: as §2, §3, §4, §1

[5] = +Anticoagulant alone (0.1 U/mL unfractionated heparin, 2.7 μg/mL enoxaparin, 1 μg/mL argatroban or 0.2 μg/mL rivaroxaban)
[6] = +100 μM polyP, no anticoagulant, blood samples of the argatroban series
[7] = +100 μM polyP, no anticoagulant, blood samples of the enoxaparin series
[8] = +100 μM polyP, no anticoagulant, blood samples of the rivaroxaban series
[9] = +100 μM polyP, no anticoagulant, blood samples of the unfractionated heparin series
[10] = +Anticoagulant + polyP: 0.2 μg/mL rivaroxaban + 100 μM polyP
[11] = +Anticoagulant + polyP: 1 μg/mL argatroban + 100 μM polyP
[12] = +Anticoagulant + polyP: 2.7 μg/mL enoxaparin + 100 μM polyP
[13] = +Anticoagulant + polyP: 0.1 U/mL unfractionated heparin + 100 μM polyP

Sequence of factor V (P12259 29-2224): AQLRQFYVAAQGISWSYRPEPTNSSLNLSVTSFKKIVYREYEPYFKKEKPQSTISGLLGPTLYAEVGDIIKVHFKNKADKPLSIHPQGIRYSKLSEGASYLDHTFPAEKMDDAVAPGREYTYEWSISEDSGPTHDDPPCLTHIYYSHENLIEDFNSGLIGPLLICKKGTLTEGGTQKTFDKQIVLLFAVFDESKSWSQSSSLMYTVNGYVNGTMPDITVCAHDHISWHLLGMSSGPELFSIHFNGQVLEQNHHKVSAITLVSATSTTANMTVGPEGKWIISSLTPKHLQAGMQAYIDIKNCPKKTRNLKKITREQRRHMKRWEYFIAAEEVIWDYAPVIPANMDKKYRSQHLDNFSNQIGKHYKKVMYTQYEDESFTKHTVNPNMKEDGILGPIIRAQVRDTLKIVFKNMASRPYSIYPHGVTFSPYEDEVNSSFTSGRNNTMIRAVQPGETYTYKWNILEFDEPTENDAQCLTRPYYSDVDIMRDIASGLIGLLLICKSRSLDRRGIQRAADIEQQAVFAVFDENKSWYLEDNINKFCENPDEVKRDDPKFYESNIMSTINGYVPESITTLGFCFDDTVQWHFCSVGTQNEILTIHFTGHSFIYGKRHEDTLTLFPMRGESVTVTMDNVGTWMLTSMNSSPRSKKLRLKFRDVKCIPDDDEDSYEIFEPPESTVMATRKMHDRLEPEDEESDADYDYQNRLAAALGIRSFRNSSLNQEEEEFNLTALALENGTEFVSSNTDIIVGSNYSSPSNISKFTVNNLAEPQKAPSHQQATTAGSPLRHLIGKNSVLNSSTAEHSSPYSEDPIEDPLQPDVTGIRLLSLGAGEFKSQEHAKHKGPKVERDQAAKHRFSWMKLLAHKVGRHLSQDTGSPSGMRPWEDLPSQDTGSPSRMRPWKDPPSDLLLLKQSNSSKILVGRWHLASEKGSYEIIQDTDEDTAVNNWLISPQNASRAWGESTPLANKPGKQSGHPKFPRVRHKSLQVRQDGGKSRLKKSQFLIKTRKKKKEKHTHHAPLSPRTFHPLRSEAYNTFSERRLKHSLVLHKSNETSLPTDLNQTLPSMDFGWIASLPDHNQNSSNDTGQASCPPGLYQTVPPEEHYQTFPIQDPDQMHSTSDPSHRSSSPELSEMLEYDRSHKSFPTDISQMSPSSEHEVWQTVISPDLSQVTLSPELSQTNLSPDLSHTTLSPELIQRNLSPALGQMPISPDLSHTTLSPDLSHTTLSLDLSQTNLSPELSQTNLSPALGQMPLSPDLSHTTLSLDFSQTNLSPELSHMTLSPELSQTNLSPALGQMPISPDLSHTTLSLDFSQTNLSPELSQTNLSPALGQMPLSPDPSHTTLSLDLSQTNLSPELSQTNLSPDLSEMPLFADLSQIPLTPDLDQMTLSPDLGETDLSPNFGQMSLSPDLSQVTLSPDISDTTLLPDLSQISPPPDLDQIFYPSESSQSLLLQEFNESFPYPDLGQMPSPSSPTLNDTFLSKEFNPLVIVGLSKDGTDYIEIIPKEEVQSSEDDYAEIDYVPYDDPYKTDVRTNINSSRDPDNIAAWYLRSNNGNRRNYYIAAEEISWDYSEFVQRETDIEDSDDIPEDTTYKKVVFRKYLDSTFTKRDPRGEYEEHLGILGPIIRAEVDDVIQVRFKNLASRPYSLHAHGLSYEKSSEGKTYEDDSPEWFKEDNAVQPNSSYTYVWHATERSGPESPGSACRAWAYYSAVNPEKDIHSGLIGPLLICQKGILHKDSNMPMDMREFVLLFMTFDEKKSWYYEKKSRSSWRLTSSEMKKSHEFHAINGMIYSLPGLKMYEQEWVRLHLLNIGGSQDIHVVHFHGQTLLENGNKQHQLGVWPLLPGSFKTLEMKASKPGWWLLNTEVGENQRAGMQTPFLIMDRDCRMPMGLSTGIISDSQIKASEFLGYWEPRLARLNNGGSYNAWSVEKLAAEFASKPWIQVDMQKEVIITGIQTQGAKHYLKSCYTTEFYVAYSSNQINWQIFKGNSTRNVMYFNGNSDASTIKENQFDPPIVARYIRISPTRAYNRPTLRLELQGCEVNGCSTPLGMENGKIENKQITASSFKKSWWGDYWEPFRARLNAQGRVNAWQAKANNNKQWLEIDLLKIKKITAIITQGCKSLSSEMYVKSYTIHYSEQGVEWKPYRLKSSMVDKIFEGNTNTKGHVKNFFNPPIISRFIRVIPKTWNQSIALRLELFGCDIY

## O=C(NC[C@H]1CN(c2ccc(N3CCOCC3=O)cc2)C(=O)O1)c1ccc(Cl)s1 [Rivaroxaban, reference compound]
[1]; in a patient
  plasma half-life: 7 to 10 h
Fresh whole blood; [5]
  MCF: 54.8 mm
  α angle: 47.6 °

## CC1CNc2c(cccc2S(=O)(=O)N[C@@H](CCCNC(=N)N)C(=O)N2CC[C@@H](C)C[C@@H]2C(=O)O)C1 (some centres unmarked) [Argatroban, reference compound]
[1]; human, in vivo
  therapeutic plasma concentration: about 1 μg/ml
Fresh whole blood; [5]
  MCF: 49.4 mm
  α angle: 38.8 °

## Polyphosphate
Fresh whole blood; [6]
  MCF: 62.2 mm
  α angle: 69.0 °
Fresh whole blood; [7]
  MCF: 64.8 mm
  α angle: 71.0 °
Fresh whole blood; [8]
  MCF: 64.0 mm
  α angle: 70.0 °
Fresh whole blood; [9]
  MCF: 63.0 mm
  α angle: 69.6 °
Fresh whole blood; [10]
  MCF: 63.6 mm
  α angle: 67.4 °
Fresh whole blood; [11]
  MCF: 59.4 mm
  α angle: 56.4 °
Fresh whole blood; [12]
  MCF: 59.8 mm
  α angle: 60.4 °
Fresh whole blood; [13]
  MCF: 52.4 mm
  α angle: 46.8 °
Fresh whole blood; blood containing argatroban
  effect of polyP on CT, in words: shortened but did not entirely normalize
Fresh whole blood; blood containing enoxaparin
  effect of polyP on thromboelastography parameters, in words: normalized all parameters
Fresh whole blood; blood containing rivaroxaban
  effect of polyP on thromboelastography curve, in words: complete reversal of anticoagulation
Fresh whole blood; blood containing unfractionated heparin
  effect of polyP on CT, in words: shortened, but did not completely normalize
thrombin
  effect on ability of antithrombin to inactivate thrombin: neither enhanced nor blocked
  effect on ability of heparin to accelerate inactivation of thrombin by antithrombin: did not enhance or block
fibrinogen
  effect on fibrin clot structure: thicker fibrin fibers that are more resistant to fibrinolysis
Pooled normal plasma; both types of heparin, decreased slope of the dose-response curve, 67 μM polyP75
  reversal of the effective dose of heparins: approximately 50%
Pooled normal plasma; plasma with low molecular weight heparin (enoxaparin), all concentrations evaluated (20-100 μg/mL), 67 μM polyP75
  shortening of clot time by polyP: approximately 50%
Pooled normal plasma; plasma with rivaroxaban, all concentrations tested (0.2-1 μg/mL), 67 μM polyP75
  shortening of clot time by polyP: approximately 80%
Pooled normal plasma; plasma with supratherapeutic argatroban (1-3 μg/ml) + polyP
  argatroban level giving equivalent prolongation of clot time: less than 0.5 μg/ml
Pooled normal plasma; plasma with unfractionated heparin, all concentrations evaluated (0.2-1 U/mL), 67 μM polyP75
  shortening of clot time by polyP: approximately 50%
Pooled normal plasma; unfractionated heparin, enoxaparin, argatroban, rivaroxaban, 67 μM polyP75
  effect on anticoagulant effect of drugs added in vitro to normal plasma: antagonized the anticoagulant effect of all four drugs
[2]
  effect on plasma clot time: shortened, but did not completely normalize
Factor V
  effect on activation of factor V by thrombin or factor Xa: accelerate the activation of factor V
[3]; 5 patients with severe hemophilia A, polyP75 added in vitro
  effect on plasma clot time: decreased the plasma clot time
[3]; FVIII deficiency, polyP alone vs FVIII restored to normal plasma concentration
  shortening of plasma clot time compared with factor replacement: greater degree than did restoring the missing clotting factor
[3]; FVIII-deficient plasma, all rFVIIa concentrations evaluated
  procoagulant effect in combination with rFVIIa: additive
[3]; FVIII-deficient plasma, polyP alone
  rFVIIa concentration giving similar shortening of plasma clot time: ~15 nM
[3]; severe hemophilia A plasma in the presence of polyP
  clotting of patient plasma with polyP compared with pooled normal plasma: clotted more rapidly than did pooled normal plasma without polyP
[4]; 4 patients with severe hemophilia B, polyP75 added in vitro
  effect on plasma clot time: decreased the plasma clot time
[4]; FIX deficiency, polyP alone vs FIX restored to normal plasma concentration
  shortening of plasma clot time compared with factor replacement: greater degree than did restoring the missing clotting factor
[4]; FIX-deficient plasma, all rFVIIa concentrations evaluated
  procoagulant effect in combination with rFVIIa: additive
[4]; FIX-deficient plasma, polyP alone
  rFVIIa concentration giving similar shortening of plasma clot time: ~6 nM
[4]; severe hemophilia B plasma in the presence of polyP
  clotting of patient plasma with polyP compared with pooled normal plasma: clotted more rapidly than did pooled normal plasma without polyP
